Data on eight molecules can be found in ChEMBL document CHEMBL5532705, “Bioactivity-Based Molecular Networking-Guided Isolation of Epicolidines A-C from the Endophytic Fungus Epicoccum sp. 1-042” (2024).

Holding throughout (type): functional
For one assay, the system named is Candida tropicalis. Nature of the assay: Antimicrobial activity against Candida tropicalis ATCC 1369 assessed as inhibition of microbial growth incubated for 16 hrs by broth microdilution method. For orientation: In broth dilution the organism is exposed to a series of concentrations in liquid medium.
Assay [1] relates to Enterococcus faecium. Nature of the assay: Antimicrobial activity against vancomycin resistant Enterococcus faecium 310682 assessed as inhibition of microbial growth incubated for 16 hrs by broth microdilution method.
For the next assay, the system named is Candida albicans. In words: Antimicrobial activity against Candida albicans ATCC 10231 assessed as inhibition of microbial growth incubated for 16 hrs by broth microdilution method.
A further assay relates to Escherichia coli. In words: Antimicrobial activity against Escherichia coli ATCC 25922 assessed as inhibition of microbial growth incubated for 16 hrs by broth microdilution method.
The next assay deals with Klebsiella pneumoniae. Nature of the assay: Antimicrobial activity against Klebsiella pneumoniae ATCC 700603 assessed as inhibition of microbial growth incubated for 16 hrs by broth microdilution method.
Assay [2] relates to Staphylococcus aureus. Nature of the assay: Antimicrobial activity against methicillin resistant Staphylococcus aureus 181404 assessed as inhibition of microbial growth incubated for 16 hrs by broth microdilution method.
A further assay has as its system Pseudomonas aeruginosa. In words: Antimicrobial activity against Pseudomonas aeruginosa ATCC 27853 assessed as inhibition of microbial growth incubated for 16 hrs by broth microdilution method.
Assay [3] relates to Enterococcus faecium. Nature of the assay: Antimicrobial activity against Enterococcus faecium ATCC 35667 assessed as inhibition of microbial growth incubated for 16 hrs by broth microdilution method.
The subject of assay [4] is Staphylococcus aureus. Nature of the assay: Antimicrobial activity against Staphylococcus aureus ATCC 29213 assessed as inhibition of microbial growth incubated for 16 hrs by broth microdilution method.
Assay [5] deals with Enterococcus faecium. In words: Antimicrobial activity against vancomycin resistant Enterococcus faecium 310682 assessed as inhibition of microbial growth incubated for 16 hrs in presence of quinupristin by broth microdilution method.
Assay [6] concerns Enterococcus faecium. In words: Antimicrobial activity against vancomycin resistant Enterococcus faecium 310682 assessed as inhibition of microbial growth incubated for 16 hrs in presence of dalfopristin by broth microdilution method.
Assay [7] relates to Enterococcus faecium. In words: Antibacterial activity against vancomycin resistant Enterococcus faecium 310682 infected in Galleria mellonella last-instar larvae assessed as survival at 0.20 mg/kg measured after 1 day (reference value: 30%). As to conditions: Enterococcus faecium, 310682, 24 h.
Assay [8] relates to Enterococcus faecium. Nature of the assay: Antibacterial activity against vancomycin resistant Enterococcus faecium 310682 infected in Galleria mellonella last-instar larvae assessed as survival at 1 mg/kg measured after 1 day (reference value: 30%). The following applies: Enterococcus faecium, 310682, 24 h.
Assay [9] relates to Enterococcus faecium. In words: Antibacterial activity against vancomycin resistant Enterococcus faecium 310682 infected in Galleria mellonella last-instar larvae assessed as survival at 10 mg/kg measured after 1 day (reference value: 30%). As to conditions: Enterococcus faecium, 310682, 24 h.

Numbered stars: 1 amine (or outer) side, 2 acyl side, 3 side chain; on linkers, the order of the positions; unused ones are H or OH. Bridge positions count the residues as written; N and C are the ends. Square brackets hold non-standard residues; d marks the D form. Peptide text beside a SMILES is read from it. * marks the point of attachment. X1 = O=C1C[C@@H](C(=O)[*:2])N([*:1])C[C@H]1CS[C@@H]1CN2CCC1CC2; NMePhe(4-NMe2) = CN[C@@H](Cc1ccc(N(C)C)cc1)C(=O)O; Picolinoyl(3-OH) = O=C(c1ncccc1O)*; Phg = N[C@H](C(=O)O)c1ccccc1; dAbu = CC[C@@H](N)C(=O)O

What is called MIC is the lowest concentration that inhibits growth of the organism. On to `CC[C@H](C)[C@@H]1N(C)C(=O)[C@H]2C(=O)[C@H]3[C@@H]4[C@H](C)C[C@H](C)C[C@@H]4C=C[C@@H]3[C@@]3(C)O[C@]21O[C@H]3C`, for which the MIC with Candida tropicalis is above 128 µg/mL; in the assay with Enterococcus faecium [1], 16 µg/mL; in the assay with Candida albicans, above 128 µg/mL; with Escherichia coli, above 128 µg/mL; in the assay with Klebsiella pneumoniae it was above 128 µg/mL; in the assay on Staphylococcus aureus [2] it was 16 µg/mL. In addition, the values for the MIC in the assay with Pseudomonas aeruginosa, in the assay on Enterococcus faecium [3] and with Staphylococcus aureus [4] were above 128 µg/mL, 64 µg/mL and 64 µg/mL, respectively.

In the case of `OC(Cn1cncn1)(Cn1cncn1)c1ccc(F)cc1F` [FLUCONAZOLE], the results for the MIC with Candida tropicalis and with Candida albicans were 2 µg/mL and 8 µg/mL, respectively.

With `CN[C@H](CC(C)C)C(=O)N[C@H]1C(=O)N[C@@H](CC(N)=O)C(=O)N[C@H]2C(=O)N[C@H]3C(=O)N[C@H](C(=O)N[C@H](C(=O)O)c4cc(O)cc(O)c4-c4cc3ccc4O)[C@H](O)c3ccc(c(Cl)c3)Oc3cc2cc(c3O[C@@H]2O[C@H](CO)[C@@H](O)[C@H](O)[C@H]2O[C@H]2C[C@](C)(N)[C@H](O)[C@H](C)O2)Oc2ccc(cc2Cl)[C@H]1O` [VANCOMYCIN], the MIC in the assay with Enterococcus faecium [1] was above 16 µg/mL; in the assay with Staphylococcus aureus [2] it was 0.25 µg/mL.

For `CCN(CC)CCS(=O)(=O)[C@@H]1CCN2C(=O)c3coc(n3)CC(=O)C[C@H](O)/C=C(C)/C=C/CNC(=O)/C=C/[C@@H](C)[C@@H](C(C)C)OC(=O)[C@@H]12` [DALFOPRISTIN], in the assay on Enterococcus faecium [5], the MIC is 0.5 µg/mL.

As to `CC[C@H]1NC(=O)[C@@H](NC(=O)c2ncccc2O)[C@@H](C)OC(=O)[C@H](c2ccccc2)NC(=O)[C@@H]2CC(=O)[C@H](CS[C@@H]3CN4CCC3CC4)CN2C(=O)[C@H](Cc2ccc(N(C)C)cc2)N(C)C(=O)[C@@H]2CCCN2C1=O` [QUINUPRISTIN] ({Picolinoyl(3-OH)}-T[dAbu]P[NMePhe(4-NMe2)][X1][Phg]; ester 1-C), in the assay with Enterococcus faecium [6], the MIC was found to be 0.5 µg/mL.

With `C[C@@H](O)[C@H]1C(=O)N2C(C(=O)O)=C(S[C@@H]3CN[C@H](C(=O)N(C)C)C3)[C@H](C)[C@H]12` [MEROPENEM], the MIC in the assay on Enterococcus faecium [1] is above 16 µg/mL; in the assay with Escherichia coli, 0.5 µg/mL; in the assay with Klebsiella pneumoniae, 2 µg/mL; in the assay on Staphylococcus aureus [2] it was above 16 µg/mL; in the assay with Pseudomonas aeruginosa, 16 µg/mL; in the assay with Enterococcus faecium [3] it was above 16 µg/mL. For the same molecule, the MIC in the assay with Staphylococcus aureus [4] stood at 2 µg/mL.

Turning to `CC[C@H](C)[C@H]1C(=O)/C(=C(/O)[C@H]2[C@@H]3[C@H](C)C[C@H](C)C[C@@H]3C=C[C@@H]2[C@]2(C)O[C@H]2C)C(=O)N1C`, in the assay on Enterococcus faecium [7], the survival at 0.2 mg/kg amounted to 0%. The minimal inhibitory concentration (MIC) with Candida tropicalis is above 128 µg/mL; in the assay with Enterococcus faecium [1] it was 0.25 µg/mL; in the assay on Candida albicans, 8 µg/mL; in the assay on Escherichia coli, above 128 µg/mL; with Klebsiella pneumoniae, above 128 µg/mL; in the assay on Staphylococcus aureus [2], 0.5 µg/mL. In addition, the MIC with Pseudomonas aeruginosa was above 128 µg/mL; with Enterococcus faecium [3], 1 µg/mL; in the assay on Staphylococcus aureus [4] it was 0.25 µg/mL. Also, the survival at 1 mg/kg in the assay on Enterococcus faecium [8] stood at 40%. The survival at 10 mg/kg in the assay on Enterococcus faecium [9] came out at 100%.

As for `C=C([C@H](C)O)[C@H]1C=C[C@H]2C[C@@H](C)C[C@@H](C)[C@H]2[C@@H]1/C(O)=C1\C(=O)[C@H]([C@@H](C)CC)N(C)C1=O`, the MIC in the assay with Candida tropicalis is above 128 µg/mL; with Enterococcus faecium [1], 2 µg/mL; with Candida albicans, 128 µg/mL; in the assay with Escherichia coli, above 128 µg/mL; in the assay on Klebsiella pneumoniae, above 128 µg/mL; in the assay on Staphylococcus aureus [2], 2 µg/mL. In addition, the values for the MIC in the assay on Pseudomonas aeruginosa, in the assay with Enterococcus faecium [3] and in the assay on Staphylococcus aureus [4] were above 128 µg/mL, 8 µg/mL and 2 µg/mL, respectively.
